Data reported in the Deep4Chem optical property database.

Experiment: solvent given as SMILES

## CCCCN1C(=O)c2cc(Oc3ccc(C(C)(C)C)cc3)c3c4c(Oc5ccc(C(C)(C)C)cc5)cc5c(=O)n6c(c7cc(Oc8ccc(C(C)(C)C)cc8)c(c8c(Oc9ccc(C(C)(C)C)cc9)cc(c2c38)C1=O)c4c57)=Cc1cccc[n+]1[B-]6(F)F
In C1CCOC1
  fluorescence lifetime: 3.79 ns
In Cc1ccccc1
  fluorescence lifetime: 4.1 ns
In ClCCl
  fluorescence lifetime: 4.51 ns

## COC(=O)C(Cc1ccc2oc(-c3ccncc3)nc2c1)NC(=O)OC(C)(C)C (stereo unspecified)
In CC1CCCCC1
  fluorescence lifetime: 0.609 ns
In CC#N
  fluorescence lifetime: 1.19 ns
In CO
  fluorescence lifetime: 2.17 ns

## CCC1(CC)c2ccccc2-c2c1c1c(c3c2C(CC)(CC)c2cc(B(c4c(C)cc(C)cc4C)c4c(C)cc(C)cc4C)ccc2-3)C(CC)(CC)c2cc(B(c3c(C)cc(C)cc3C)c3c(C)cc(C)cc3C)ccc2-1
In C1CCOC1
  fluorescence lifetime: 4.2 ns

## CC1(C)C(/C=C/C2=C(Cl)C(=C/C=C3/N(CCCCS(=O)(=O)[O-])c4ccc5ccccc5c4C3(C)C)/CCC2)=[N+](CCCCS(=O)(=O)[O-])c2ccc3ccccc3c21
In CC(C)=O
  fluorescence lifetime: 0.43 ns
In CCO
  fluorescence lifetime: 0.38 ns
In CO
  fluorescence lifetime: 0.25 ns
In CS(C)=O
  fluorescence lifetime: 0.5 ns
In ClC(Cl)Cl
  fluorescence lifetime: 0.73 ns
In ClCCl
  fluorescence lifetime: 0.59 ns
In O
  fluorescence lifetime: 0.13 ns

## C[SiH](C)c1cccc2ccccc12
In C1CCCCC1
  fluorescence lifetime: 61 ns

## c1ccc(-c2nc(-c3ccccc3)nc(-c3ccc(-n4c5ccccc5c5cc6c(cc54)C(c4ccccc4)(c4ccccc4)c4ccccc4-6)cc3)n2)cc1
In O=P(c1ccccc1)(c1ccccc1)c1ccccc1Oc1ccccc1P(=O)(c1ccccc1)c1ccccc1
  fluorescence lifetime: 10.3 ns

## COc1ccc2nc3c(nc2c1)c(-c1ccccc1)nn3C
In C1CCCCC1
  fluorescence lifetime: 5.37 ns
In C1CCOC1
  fluorescence lifetime: 12.4 ns
In CC#N
  fluorescence lifetime: 16.7 ns

## C(=C\c1c2ccccc2cc2ccccc12)/c1cnc2ccccc2c1
In CC1CCCCC1
  fluorescence lifetime: 3.2 ns
In CC#N
  fluorescence lifetime: 3 ns

## COc1ccc(C#Cc2c3ccccc3c(C#Cc3ccc(OC)cc3)c3cc4sc(C)cc4cc23)cc1
In ClCCl
  fluorescence lifetime: 5.3 ns

## CC[N+](CC)=c1ccc2c(-c3ccccc3C(=O)O)c3cc4c(-c5ccccc5C(=O)O)c5ccc(=[N+](CC)CC)cc-5oc4cc3oc-2c1
In ClC(Cl)Cl
  fluorescence lifetime: 0.72 ns

## CCOC(=O)COc1ccc(/C=C/C2=C3c4ccccc4C(c4[nH]c(C)cc4C)=[N+]3[B-](F)(F)n3c(/C=C/c4ccc(OCC(=O)OCC)cc4)cc(C)c32)cc1
In ClCCl
  fluorescence lifetime: 4.82 ns

## CN(C)c1ccc(C#Cc2ccccc2)cc1
In C1CCCCC1
  fluorescence lifetime: 0.38 ns
In C1CCOC1
  fluorescence lifetime: 0.589 ns
In C1COCCO1
  fluorescence lifetime: 0.71 ns
In CC1CCCO1
  fluorescence lifetime: 0.414 ns
In CC#N
  fluorescence lifetime: 1.25 ns
In CC(C)=O
  fluorescence lifetime: 1.83 ns
In CC(C)CC(C)(C)C
  fluorescence lifetime: 0.35 ns
In CCCCCCCCCCCCCCCC
  fluorescence lifetime: 0.43 ns
In CCCCCCCCCCCCCCCCCl
  fluorescence lifetime: 0.66 ns
In CCOC(C)=O
  fluorescence lifetime: 1.16 ns
In CCOCC
  fluorescence lifetime: 0.411 ns
In CN(C)C=O
  fluorescence lifetime: 1.24 ns
In CS(C)=O
  fluorescence lifetime: 0.757 ns
In Cc1ccccc1
  fluorescence lifetime: 0.58 ns

## Cc1ccc(-n2c3ccccc3c3cc(-c4ccc5[n+](c4)[B-](F)(F)n4c-5nc5c6ccccc6c6ccccc6c54)ccc32)cc1
In ClC(Cl)Cl
  fluorescence lifetime: 15 ns

## Cc1ccc(-c2cc(-c3ccccc3)c(C#N)c(=S)[nH]2)cc1
In CC#N
  fluorescence lifetime: 4.92 ns
In CCO
  fluorescence lifetime: 4.79 ns
In ClC(Cl)(Cl)Cl
  fluorescence lifetime: 1.22 ns

## CSc1nc(-c2ccc(-n3c4ccccc4c4ccccc43)cc2)cc(-c2ccc(-n3c4ccccc4c4ccccc43)cc2)n1
In C1CCOC1
  fluorescence lifetime: 3.22 ns
In CN(C)C=O
  fluorescence lifetime: 7.39 ns
In Cc1ccccc1
  fluorescence lifetime: 1.45 ns
In ClC(Cl)Cl
  fluorescence lifetime: 3.24 ns

## CCN(CC)c1ccc2cc(/C(Cl)=C/C=C/C(=C(C#N)C#N)c3ccc4c(c3)c3ccccc3n4CC)c(=O)oc2c1
In CC(C)=O
  fluorescence lifetime: 0.47 ns
In CCOC(C)=O
  fluorescence lifetime: 1.14 ns
In CN(C)C=O
  fluorescence lifetime: 0.86 ns
In CS(C)=O
  fluorescence lifetime: 0.36 ns
In Cc1ccccc1
  fluorescence lifetime: 1.39 ns
In ClCCl
  fluorescence lifetime: 1.82 ns

## CC(C)(C)[Si](C)(C)c1cccc2ccccc12
In C1CCCCC1
  fluorescence lifetime: 56 ns

## COc1cc2cc(OC)c(C#Cc3ccc([N+](=O)[O-])cc3)cc2cc1C#Cc1ccc([N+](=O)[O-])cc1
In C1CCOC1
  fluorescence lifetime: 0.25 ns
In ClC(Cl)Cl
  fluorescence lifetime: 0.9 ns
In ClCCl
  fluorescence lifetime: 0.38 ns

## CCN(CC)c1ccc2cc(C#N)c(=N)oc2c1
In ClCCl
  fluorescence lifetime: 2.9 ns

## CCN1C(=O)C(C2C(=O)c3c4ccccc4cc4cc5ccccc5c2c34)C(=O)N(CC)C1=S (stereo unspecified)
In C1CCOC1
  fluorescence lifetime: 11.1 ns
In CCCCCC
  fluorescence lifetime: 13.1 ns
In Cc1ccccc1
  fluorescence lifetime: 12.4 ns
In ClCCl
  fluorescence lifetime: 10.5 ns

## COC(=O)C[C@H](Cc1c[nH]c2ccccc12)NC(=O)[C@H](CC(=O)N[C@@H](CC1=CCc2ccccc21)C(=O)OC)NC(=O)[C@H](Cc1c[nH]c2ccccc12)NC(=O)OC(C)(C)C
In CC#N
  fluorescence lifetime: 2.67 ns
In CCOC(C)=O
  fluorescence lifetime: 2.08 ns
In CO
  fluorescence lifetime: 1.86 ns

## Fc1c(-c2nnc(-c3ccccc3)o2)c(-n2c3ccccc3c3ccccc32)c(F)c(-n2c3ccccc3c3ccccc32)c1-n1c2ccccc2c2ccccc21
In Cc1ccccc1
  fluorescence lifetime: 7.7 ns

## CCn1c2ccccc2c2cc(-c3cc(-c4ccc5c(c4)c4ccccc4n5CC)nc(S(C)(=O)=O)n3)ccc21
In C1CCOC1
  fluorescence lifetime: 2.31 ns
